Measurements: publication PMC5218480 (PLoS ONE, 2017)

System: MV-4-11 cells
Test: Gene expression microarray analysis (Affymetrix PrimeView) and GSEA
Format: cell-based, human
Details: MV-4-11, 48 hours, 1 μM each

## Nc1ncn([C@@H]2O[C@H](CO)[C@@H](O)[C@H]2O)c(=O)n1 [azacitidine]
  genes down-regulated greater than 2-fold relative to vehicle control: 12 genes
